Results taken from EP2954896A1, “Small molecule inhibitors of the E3 Ligase Skp2 in depression and other diseases” (Max-Planck-Gesellschaft zur Förderung der Wissenschaften …, priority 2014, dated 2015).

Tests used:
autophagy markers = assay: Autophagy markers in protein extracts of hippocampus and prefrontal cortex after acute antidepressant injection; format: in vivo, mice; conditions: 10 mgkg-1
Protocol: Western blot analysis was performed on eluates from ColPs or with protein extracts from cells or tissue. Protein extracts were obtained by lysing cells or tissue (prelysed as described in the paragraph before) in 62.5 mM Tris, 2% SDS and 10% sucrose, supplemented with protease (Sigma, P2714) and phosphatase (Roche, 04906837001) inhibitor cocktail. Samples were sonicated and heated at 95 °C for 5 min. Proteins were separated by SDS-PAGE and electro-transferred onto nitrocellulose membranes. Blots were placed in Tris-buffered saline, supplemented with 0.05% Tween (Sigma, P2287) and 5% non-fat milk for 1 h at room temperature and then incubated with primary antibody (diluted in TBS/0.05% Tween) overnight at 4 °C. The following primary antibodies were used: Beclin1 (1:1000, Cell Signaling, #3495), Atg12 (1:1000, Cell Signaling #2010), LC3B-I/II (1:1000, Cell Signaling, #2775), FLAG (1:7000, Rockland, 600-401-383), FKBP51 (1:1000, Bethyl, A301-430A), Akt (1:1000, Cell Signaling, #4691), pAkt (1:1000, Ser473, T308, 1:1000, Cell Signaling, #4058, #9275), Actin (1:5000, Santa Cruz Biotechnologies, sc-1616), Skp2, myc (Addgene, 19947), GFP (santa cruz biotechnologies, sc-8334), p27 (cell signaling technologies, 3686), pULK,(S757, cell signaling technologies, 6888) APP-CTF (sigma-aldrich, A8717), DNMT1 (1:1000, Imgenex, IMG-261A), phospho-DNMT1 (S154), (1:1000, Abnova, PAB4924), ptau (S622; Santa Cruz Biotechnologies, #sc-16938).
Subsequently, blots were washed and probed with the respective horseradish peroxidase- or fluorophore-conjugated secondary antibody for 1 h at room temperature. The immuno-reactive bands were visualized either using ECL detection reagent (Millipore, Billerica, MA, USA, WBKL0500) or directly by excitation of the respective fluorophore. Determination of the band intensities were performed with BioRad, ChemiDoc MP, or X-ray-films.
The Fkbp51^-/- mouse line was previously generated (Touma C et al. (2011) Biol. Psychiatry 70: 928-936) and fully backcrossed to C57/BI6. […] Hippocampus and prefrontal cortex were extracted.

[1] = system: autophagy pathway markers; assay: Chronic PAR treatment after chronic social defeat stress: autophagy pathway marker protein levels; format: in vivo, mice; conditions: effect of deletion of FKBP51
Protocol: Western blot analysis was performed on eluates from ColPs or with protein extracts from cells or tissue. Protein extracts were obtained by lysing cells or tissue (prelysed as described in the paragraph before) in 62.5 mM Tris, 2% SDS and 10% sucrose, supplemented with protease (Sigma, P2714) and phosphatase (Roche, 04906837001) inhibitor cocktail. Samples were sonicated and heated at 95 °C for 5 min. Proteins were separated by SDS-PAGE and electro-transferred onto nitrocellulose membranes. Blots were placed in Tris-buffered saline, supplemented with 0.05% Tween (Sigma, P2287) and 5% non-fat milk for 1 h at room temperature and then incubated with primary antibody (diluted in TBS/0.05% Tween) overnight at 4 °C. […]

Beclin1 mRNA = Beclin1 mRNA expression by qPCR in rat cortical astrocytes; format: cell-based; conditions: 10µM for 72h; vehicle set to 1
Protocol: Enriched astroglial cultures were prepared from postnatal day 1 rat pups (Sprague-Dawley, Charles River, Sulzfeld, Germany) and handled as described by Attwood BK et al. (2011) Nature 473: 372-375 and Hartmann J et al. (2012) Neuropharmacology 62: 332-339.
Total RNA was isolated from astroglial cells according to the manufacturer's protocol of NucleoSpin RNA II (Macherey-Nagel, Germany). In total, 300 ng of purified RNA was reverse transcribed using random primers (Promega) and Omniscript® Reverse Transcriptase (Qiagen). Based on the LightCycler® System (Roche Applied Science, Germany) and SYBR green detection (QuantiFast® SYBR Green; Qiagen), quantitative assessment of Beclin1 cDNA levels were performed. b-Actin PCR was performed serving as endogenous control for normalization. The primers used were: for Beclin1: antisense - 5'-[…]-3' sense - 5'-[…]-3'; and for β-Actin: antisense - 5'-[…]-3', sense-5'-[…]-3'. Relative changes of gene expression were calculated using the comparative ΔΔCT method (Livak and Schmittgen, METHODS 25, 402-408, 2001). Detection of viral RNA by real-time PCR was as recently described (Corman et al. (2014) Journal of Clinical Virology 60: 168-171).
Beclin1 mRNA expression levels were determined by qPCR. HEK cells were treated either with proteasome inhibitor MG132 or with vehicle for 5h and Beclin1 protein levels were determined by Western analysis. Furthermore Co-immunoprecipitations were performed with Beclin1 antibody in HEK cell lysates with ectopic Ub-GFP.

[2] = Fkbp51+/+ mice, hippocampus and prefrontal cortex

Fc1ccc([C@@H]2CCNC[C@H]2COc2ccc3c(c2)OCO3)cc1 [PAR, paroxetine]
level of Atg12 (autophagy markers; [2]): increased | level of Beclin1 (autophagy markers; [2]): increased | level of Vps34 (autophagy markers; [2]): increased | phosphorylation of the kinase Akt (pAktS473) (autophagy markers; [2]): evoked dephosphorylation | protein levels of autophagy markers and pAktS473 (autophagy markers; Fkbp51-/- mice, either brain region): no alterations | effects on autophagy pathway markers Beclin1, Atg12, pAktS473/Akt and LC3BII/I [1]: abolished | Beclin1 mRNA expression level (Beclin1 mRNA): do not change Beclin1-mRNA
